According to patent US20240374573A1, “IMIDAZOLE CONTAINING COMPOUNDS, DERIVATIVES THEREFORE, AND USES THEREOF” (AglaeaPharma Inc., priority 2023, published 2024):

Legend:
[1] = biological target: T1, α2AAR (α2A-adrenergic receptor) (Homo sapiens, UniProt P08913); assay: α2AAR FLIPR assay (agonist activity); format: cell-based; conditions: FLIPR, α2AAR cell line hosted in HEK293 cells; read-out: α2A agonist activity (EC50)
T1 construct: expressed in transfected cells; host or cells: HEK293
T1 sequence (P08913 1-465): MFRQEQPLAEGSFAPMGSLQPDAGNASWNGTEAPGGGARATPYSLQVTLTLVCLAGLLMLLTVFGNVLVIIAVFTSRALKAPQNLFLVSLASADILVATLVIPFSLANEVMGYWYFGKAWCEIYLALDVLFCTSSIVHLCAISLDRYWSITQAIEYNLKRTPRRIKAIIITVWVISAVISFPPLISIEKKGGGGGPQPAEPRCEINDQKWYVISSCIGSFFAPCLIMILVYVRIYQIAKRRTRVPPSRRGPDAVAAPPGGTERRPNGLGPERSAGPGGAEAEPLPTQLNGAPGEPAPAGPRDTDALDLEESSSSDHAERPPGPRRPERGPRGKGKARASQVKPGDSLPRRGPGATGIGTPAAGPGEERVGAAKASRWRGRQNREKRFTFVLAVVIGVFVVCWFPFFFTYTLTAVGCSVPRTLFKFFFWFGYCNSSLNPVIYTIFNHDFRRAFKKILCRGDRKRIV
Protocol: This experimental protocol involved cell seeding and a FLIPR assay using the α2AAR (α2A-adrenergic receptor) cell line hosted in HEK293 cells. […] On Day 1, the cell seeding process started with the removal of the culture medium, followed by rinsing the cells with DPBS (21-031-CVC, Corning). […] The cells were detached, resuspended in growth media, and centrifuged at room temperature at 1000 rpm for 5 minutes. After discarding the supernatant, the cell pellet was resuspended in growth media to a concentration of 10× 10^5 cells per mL. This suspension was added to 384-well plates (19-Jul-38, Greiner) at 20 μL per well and incubated overnight at 37° C. in 5% CO2.
A 250 mM Probenecid solution was prepared in this buffer. The Fluo-4 Direct™ Loading Buffer was made by dissolving Fluo-4 Direct™ crystals (F10471, Invitrogen) in the FLIPR Assay Buffer and adding Probenecid. The buffer was then vortexed and allowed to stand for over 5 minutes, shielded from light. For the FLIPR procedure, testing compounds for agonist activite were serially diluted and transferred to a 384-well compound plate (25-Jan-39, Greiner). The cell plate was then treated with 2× Fluo-4 Direct™ loading buffer and incubated for 50 minutes at 37° C. in a 5% CO2 atmosphere, followed by 10 minutes at room temperature. Subsequently, the FLIPR assay buffer was added to the compound plate, which is then centrifuged.
The cell plate was analyzed in the FLIPR Tetra+ System for fluorescence signals. For the agonist test, reference compounds were added to the cell plates, and fluorescence was measured. The “Max-Min” calculation began from Read 1 to the maximum allowed. The data were analyzed using Prism software to calculate activation percentage for agonists and inhibition percentage for antagonists. The results were then fitted using specific models to determine EC50 for agonists.
The experimental protocol utilized various reagents and apparatus, including Penicillin/Streptomycin (100×) (SV30010, Hyclone), Poly-L-lysine hydrobromide (P1399, Sigma), and different types of 384-well plates such as the 384-Well PP 2.0 Microplate (PP-0200, LABCYTE) and 384 well Low Dead Volume Microplate (LP-0200, LABCYTE). The use of specific reference compounds like UK14304 was also integral to the assay.

[2] = biological target: T2, α2AAR (Homo sapiens, UniProt P08913); assay: α2AAR binding assay ([3H]-RX 821002 radioligand); conditions: [3H]-RX 821002 0.5 nM, HEK293 membranes; read-out: α2A affinity (Ki)
T2 construct: host or cells: HEK293 (membranes)
T2 sequence (P08913 1-465): T1 sequence (P08913 1-465)

SMILES	EC50 [1] [nM]	Ki [2] [nM]
Cc1cccc(C(c2cccc(NC(=O)CCN3CCNCC3)c2)c2c[nH]cn2)c1C (centres unmarked) [compound 90]	50 to 250	50 to 250
Cc1cccc(C(c2cccc(NS(=O)(=O)CCN3CCOCC3)c2)c2c[nH]cn2)c1C (centres unmarked) [compound 94]	50 to 250	50 to 250
CCOP(=O)(OCC)c1cccc(C(c2c[nH]cn2)c2cccc(C)c2C)c1 (centres unmarked) [compound 126]	10 to 50	< 10
Cc1cccc(C(c2cccc(NC(=O)CC[n+]3ccccc3)c2)c2c[nH]cn2)c1C (centres unmarked) [compound 143]	50 to 250	10 to 50
COCCC(=O)Nc1cccc(C(c2c[nH]cn2)c2cccc(C)c2C)c1 (centres unmarked) [compound 147]	10 to 50	10 to 50
COCCCC(=O)Nc1cccc(C(c2c[nH]cn2)c2cccc(C)c2C)c1 (centres unmarked) [compound 148]	10 to 50	10 to 50
Cc1cccc(C(c2cccc(NC(=O)C3CCOCC3)c2)c2c[nH]cn2)c1C (centres unmarked) [compound 149]	10 to 50	10 to 50
Cc1cccc(C(c2c[nH]cn2)c2cccc(C(=O)NOC3CCOCC3)n2)c1C (centres unmarked) [compound 152]	10 to 50	< 10
Cc1cccc(C(c2cccc(NC(=O)CC3CCCO3)c2)c2c[nH]cn2)c1C (centres unmarked) [compound 153]	10 to 50	10 to 50
Cc1cn(-c2cccc(C(c3c[nH]cn3)c3cccc(C)c3C)c2)nn1 (centres unmarked) [compound 160]	10 to 50	10 to 50
Cc1cccc(C(c2cccc(NC(=S)CC3CCOCC3)c2)c2c[nH]cn2)c1C (centres unmarked) [compound 161]	10 to 50	< 10
Cc1cccc(C(c2cccc(S(=O)(=O)NC3CCOCC3)c2)c2c[nH]cn2)c1C (centres unmarked) [compound 162]	10 to 50	< 10
Cc1cccc(C(c2cccc(-c3cnnn3C)c2)c2c[nH]cn2)c1C (centres unmarked) [compound 164]	10 to 50	10 to 50
Cc1cccc(C(c2cccc(NS(=O)(=O)C[C@H]3CCCO3)c2)c2c[nH]cn2)c1C (some centres unmarked) [compound 166]	10 to 50	10 to 50

The remaining lines, values ahead:

EC50 [1] [nM]	Ki [2] [nM]	SMILES
10 to 50	< 10	Cc1cccc(C(c2cccc(NC(=O)CC3CCCCO3)c2)c2c[nH]cn2)c1C (centres unmarked) [compound 96]
10 to 50	10 to 50	CC(=O)N1CCC(CC(=O)Nc2cccc(C(c3c[nH]cn3)c3cccc(C)c3C)c2)CC1 (centres unmarked) [compound 102]
10 to 50	< 10	Cc1cccc(C(c2cccc(NC(=O)CC3CCCOC3)c2)c2c[nH]cn2)c1C (centres unmarked) [compound 104]
< 10	10 to 50	Cc1cccc(C(c2cccc(NC(=O)CC3CCS(=O)(=O)CC3)c2)c2c[nH]cn2)c1C (centres unmarked) [compound 117]
10 to 50	< 10	Cc1cccc(C(c2cccc(NS(=O)(=O)CC3CCOCC3)c2)c2c[nH]cn2)c1C (centres unmarked) [compound 119]
< 10	< 10	Cc1cccc(C(c2cccc(NC(=O)CC3=CCOCC3)c2)c2c[nH]cn2)c1C (centres unmarked) [compound 120]
10 to 50	< 10	Cc1cccc(C(c2cccc(NC(=O)CN3CCC(O)CC3)c2)c2c[nH]cn2)c1C (centres unmarked) [compound 123]
10 to 50	< 10	Cc1cccc(C(c2c[nH]cn2)c2cccc(C(=O)NCC3CCOCC3)c2F)c1C (centres unmarked) [compound 124]
10 to 50	10 to 50	Cc1cccc(C(c2cccc(S(N)(=O)=O)c2)c2c[nH]cn2)c1C (centres unmarked) [compound 133]
10 to 50	< 10	Cc1cccc(C(Cc2cccc(NS(=O)(=O)C3CCOCC3)c2)c2c[nH]cn2)c1C (centres unmarked) [compound 134]
10 to 50	10 to 50	Cc1cccc(C(COCCNS(=O)(=O)CC2CCOCC2)c2c[nH]cn2)c1C (centres unmarked) [compound 139]
10 to 50	< 10	Cc1cccc(C(c2cccc(C(=O)NOC3CCOCC3)c2)c2c[nH]cn2)c1C (centres unmarked) [compound 145]
10 to 50	10 to 50	CNC(=O)Nc1cccc(C(c2c[nH]cn2)c2cccc(C)c2C)n1 (centres unmarked) [compound 146]
< 10	< 10	Cc1cccc(C(Cc2ccc(NC(=O)C3CCOCC3)cc2)c2c[nH]cn2)c1C (centres unmarked) [compound 157]
